The values that follow come from ChEMBL document CHEMBL5537191, “Rebamipide and Derivatives are Potent, Selective Inhibitors of Histidine Phosphatase Activity of the Suppressor of T Cell Receptor Signaling Proteins” (J Med Chem, 2024).

The source made the active and inactive calls. The calls are words filed in the database; no cut-off is given here.

One experiment is filed under the species Homo sapiens. Put plainly: Inhibition of recombinant STS-1 W505L mutant HP domain (unknown origin).
The target of experiment [1] is T1, Tyrosine-protein phosphatase non-receptor type 1 (Homo sapiens) (UniProt P18031).
T1 sequence (whole entry): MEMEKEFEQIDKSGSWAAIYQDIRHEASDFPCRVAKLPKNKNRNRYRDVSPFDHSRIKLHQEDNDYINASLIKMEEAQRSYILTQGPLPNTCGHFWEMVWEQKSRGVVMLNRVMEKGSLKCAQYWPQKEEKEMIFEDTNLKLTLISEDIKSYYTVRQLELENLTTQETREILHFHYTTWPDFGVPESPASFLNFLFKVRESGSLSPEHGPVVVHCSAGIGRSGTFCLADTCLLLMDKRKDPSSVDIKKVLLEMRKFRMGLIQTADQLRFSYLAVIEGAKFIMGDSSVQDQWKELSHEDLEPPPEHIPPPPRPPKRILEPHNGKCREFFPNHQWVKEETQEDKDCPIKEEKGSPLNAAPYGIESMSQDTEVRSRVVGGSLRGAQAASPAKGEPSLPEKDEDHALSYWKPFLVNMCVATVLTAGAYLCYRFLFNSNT
Put plainly: Inhibition of recombinant human PTP-1B (1 to 321 residues) phosphatase activity expressed in Escherichia coli incubated for 20 mins by spectrophotometric analysis.

Experiment [2] deals with Tyrosine-protein phosphatase non-receptor type 6 (Homo sapiens) (UniProt P29350). Put plainly: Inhibition of recombinant human SHP1 (243 to 541 residues) phosphatase activity expressed in Escherichia coli incubated for 20 mins by spectrophotometric analysis.
Tyrosine-protein phosphatase non-receptor type 6 (Homo sapiens), sequence (P29350 whole entry, the tested form may be a part): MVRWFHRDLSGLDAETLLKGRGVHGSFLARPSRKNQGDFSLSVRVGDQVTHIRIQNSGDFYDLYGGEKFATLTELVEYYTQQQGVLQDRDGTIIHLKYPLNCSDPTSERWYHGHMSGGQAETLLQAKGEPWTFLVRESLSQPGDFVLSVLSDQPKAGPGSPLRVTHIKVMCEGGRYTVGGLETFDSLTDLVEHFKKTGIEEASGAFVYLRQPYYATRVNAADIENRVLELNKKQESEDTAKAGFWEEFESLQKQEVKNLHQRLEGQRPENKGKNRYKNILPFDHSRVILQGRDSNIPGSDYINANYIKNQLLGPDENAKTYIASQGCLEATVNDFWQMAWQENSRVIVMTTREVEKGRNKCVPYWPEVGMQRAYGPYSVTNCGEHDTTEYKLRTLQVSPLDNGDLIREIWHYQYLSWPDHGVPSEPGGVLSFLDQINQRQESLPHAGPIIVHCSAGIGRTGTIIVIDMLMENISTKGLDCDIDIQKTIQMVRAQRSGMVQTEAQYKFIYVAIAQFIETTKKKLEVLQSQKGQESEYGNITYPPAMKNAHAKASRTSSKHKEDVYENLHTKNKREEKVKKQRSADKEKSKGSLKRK
Experiment [3] addresses T2, Receptor-type tyrosine-protein phosphatase C (Homo sapiens) (UniProt P08575).
T2 sequence (whole entry): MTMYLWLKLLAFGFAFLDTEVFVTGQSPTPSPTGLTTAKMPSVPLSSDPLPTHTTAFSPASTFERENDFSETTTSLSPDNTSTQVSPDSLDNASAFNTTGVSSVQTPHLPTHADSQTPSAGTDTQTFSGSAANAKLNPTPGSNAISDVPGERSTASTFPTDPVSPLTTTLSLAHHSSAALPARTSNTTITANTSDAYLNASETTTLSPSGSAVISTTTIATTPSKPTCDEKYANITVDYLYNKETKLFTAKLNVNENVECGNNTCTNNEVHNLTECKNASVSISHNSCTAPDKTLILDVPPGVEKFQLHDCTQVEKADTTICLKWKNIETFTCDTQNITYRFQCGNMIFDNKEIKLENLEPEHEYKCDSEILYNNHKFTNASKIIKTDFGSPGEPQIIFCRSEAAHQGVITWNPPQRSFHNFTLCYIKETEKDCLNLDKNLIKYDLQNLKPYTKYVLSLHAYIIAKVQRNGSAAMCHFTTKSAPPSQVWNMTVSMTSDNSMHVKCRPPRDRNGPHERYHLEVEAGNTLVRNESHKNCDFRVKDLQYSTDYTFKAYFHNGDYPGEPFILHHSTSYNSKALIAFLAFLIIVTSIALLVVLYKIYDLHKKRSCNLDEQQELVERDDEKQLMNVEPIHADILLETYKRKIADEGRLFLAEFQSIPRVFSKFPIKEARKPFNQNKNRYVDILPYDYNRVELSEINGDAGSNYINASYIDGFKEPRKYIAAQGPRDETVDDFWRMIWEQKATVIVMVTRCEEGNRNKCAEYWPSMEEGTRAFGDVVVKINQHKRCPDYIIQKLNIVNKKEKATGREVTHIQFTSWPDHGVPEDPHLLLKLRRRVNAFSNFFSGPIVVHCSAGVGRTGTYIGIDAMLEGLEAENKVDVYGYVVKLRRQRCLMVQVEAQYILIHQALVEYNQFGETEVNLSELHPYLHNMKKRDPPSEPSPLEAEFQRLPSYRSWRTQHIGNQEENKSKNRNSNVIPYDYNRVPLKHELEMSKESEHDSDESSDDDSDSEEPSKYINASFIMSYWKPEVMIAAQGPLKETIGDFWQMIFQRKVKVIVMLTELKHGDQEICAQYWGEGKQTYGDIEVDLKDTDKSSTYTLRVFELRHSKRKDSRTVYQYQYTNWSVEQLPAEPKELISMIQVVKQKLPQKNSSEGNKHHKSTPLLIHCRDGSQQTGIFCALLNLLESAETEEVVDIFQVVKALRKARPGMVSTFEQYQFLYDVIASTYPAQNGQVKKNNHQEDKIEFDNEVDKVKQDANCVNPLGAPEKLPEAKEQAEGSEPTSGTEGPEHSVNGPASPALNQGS
Put plainly: Inhibition of recombinant human CD45 (604 to 1304 residues) phosphatase activity expressed in baculovirus infected Sf9 incubated for 20 mins by spectrophotometric analysis.

The target of experiment [4] is T3, Ubiquitin-associated and SH3 domain-containing protein A (Homo sapiens) (UniProt P57075).
T3 sequence (whole entry): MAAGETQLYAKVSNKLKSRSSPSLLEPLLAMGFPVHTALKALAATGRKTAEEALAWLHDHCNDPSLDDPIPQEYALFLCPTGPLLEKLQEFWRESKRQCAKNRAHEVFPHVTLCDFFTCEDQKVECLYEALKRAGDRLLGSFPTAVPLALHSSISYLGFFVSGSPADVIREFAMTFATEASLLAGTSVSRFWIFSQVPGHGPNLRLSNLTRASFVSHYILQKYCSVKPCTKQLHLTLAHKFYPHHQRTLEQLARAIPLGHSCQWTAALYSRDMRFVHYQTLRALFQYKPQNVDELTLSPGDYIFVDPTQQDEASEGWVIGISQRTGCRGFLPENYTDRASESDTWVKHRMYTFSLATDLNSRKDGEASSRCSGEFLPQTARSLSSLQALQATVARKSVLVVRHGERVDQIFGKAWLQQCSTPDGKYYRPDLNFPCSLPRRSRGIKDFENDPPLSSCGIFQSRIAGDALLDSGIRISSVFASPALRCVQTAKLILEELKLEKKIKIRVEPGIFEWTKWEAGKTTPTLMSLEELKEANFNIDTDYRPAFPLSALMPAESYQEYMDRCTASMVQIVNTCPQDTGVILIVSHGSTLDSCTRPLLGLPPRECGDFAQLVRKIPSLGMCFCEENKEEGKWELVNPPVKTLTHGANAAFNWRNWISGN
Put plainly: Inhibition of human STS-2 HP domain (396 to 657 residues) phosphatase activity expressed in Escherichia coli BL21 (DE3) incubated for 20 mins by spectrophotometric analysis.

As for `O=C(NC(Cc1cc(=O)[nH]c2ccccc12)C(=O)O)c1ccc(Cl)cc1` (stereo not given), the inhibition result (in the experiment filed under Homo sapiens; in experiment [1]; in experiment [2]; in experiment [3]) was “inactive” in each case. For the same molecule, the inhibition entry in experiment [4] was “Active”.
